Publication PMC3922157 (Journal of Antimicrobial Chemotherapy, 2013)
Read-outs that look alike come from different tables or passages of the source.

Key:
[1] = test system: bloodstream-form T. b. brucei; experiment: Alamar blue drug susceptibility assay, bloodstream-form trypanosomes; format: cell-based; settings: for Increase in susceptibility on expression of TbAT1: TbAT1 expressed in B48 (Figure S6); for EC50: Trypanosoma brucei
Method: (§1) Drug susceptibilities of the bloodstream-form trypanosomes[47] and L. mexicana promastigotes[48] were determined using the Alamar blue assay exactly as described previously, measuring fluorescence in 96-well plates with a FLUOstar Optima (BMG Labtech, Durham, NC, USA) at wavelengths of 544 nm for excitation and 620 nm for emission. EC50 values were calculated by non-linear regression using an equation for a sigmoidal dose–response curve with variable slope (GraphPad Prism 5.0; GraphPad Software Inc., San Diego, CA, USA).

[2] = test system: procyclic T. b. brucei 247MR; format: cell-based
[3] = test system: procyclic T. b. gambiense 386MR; format: cell-based
[4] = test system: Leishmania mexicana promastigotes; experiment: Alamar blue drug susceptibility assay, L. mexicana promastigotes expressing T. brucei aquaporins; format: cell-based; settings: for Sensitization by expression of TbAQP2: L. mexicana promastigotes expressing TbAQP2 vs empty-vector control
Method: as §1
TbAQP2 and TbAQP3 were amplified from genomic DNA by PCR using Phusion polymerase (Thermo Scientific) and subcloned into the pNUS vector for expression in Leishmania.[49] The construct was verified by sequencing before transfection into L. mexicana promastigotes using an Amaxa Nucleofector (program U-33).

[5] = molecular target: T1, TbAQP2 (Trypanosoma brucei brucei, UniProt Q6ZXT3); experiment: cell-based
T1 sequence (Q6ZXT3 whole entry): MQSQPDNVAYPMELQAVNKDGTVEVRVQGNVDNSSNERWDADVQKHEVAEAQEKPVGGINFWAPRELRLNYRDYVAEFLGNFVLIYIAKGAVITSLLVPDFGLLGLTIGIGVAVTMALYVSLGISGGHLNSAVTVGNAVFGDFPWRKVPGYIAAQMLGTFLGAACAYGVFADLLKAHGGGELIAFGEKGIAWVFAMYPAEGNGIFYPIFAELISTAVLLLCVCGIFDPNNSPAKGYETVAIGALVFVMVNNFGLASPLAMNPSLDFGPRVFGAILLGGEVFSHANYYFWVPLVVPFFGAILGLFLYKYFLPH

[6] = molecular target: T1, TbAQP2
[7] = test system: T. b. brucei 247MR; parameters: method as in PMID 9225768; settings: cited from earlier work
[8] = molecular target: T2, HAPT1 (Trypanosoma brucei brucei, UniProt Q6ZXT3); experiment: [3H]pentamidine high-affinity transport, bloodstream forms
T2 sequence (Q6ZXT3 whole entry): as above

[9] = test system: LAPT1; settings: 1 μM [3H]pentamidine; for Km: read-out: LAPT1 Km
[10] = test system: LAPT1; settings: cited from earlier work
[11] = test system: LAPT1; settings: 1 μM [3H]pentamidine; for Km: read-out: LAPT1 Km; remark: listed apart in the source
[12] = test system: T. b. rhodesiense; settings: cited from earlier work; further: key: highly sensitive (+++); ++: indicated on a relative scale; +: indicated on a relative scale; +/−: indicated on a relative scale; −: indicated on a relative scale; highly resistant to pentamidine or melaminophenyl arsenicals (−−−)
[13] = test system: bloodstream-form T. b. brucei; settings: cited from earlier work
[14] = molecular target: T2, HAPT1; experiment: cell-based; format: cell-based, T. b. gambiense
[15] = test system: T. b. brucei; settings: cited from earlier work; further: key: highly sensitive (+++); ++: indicated on a relative scale; +: indicated on a relative scale; +/−: indicated on a relative scale; −: indicated on a relative scale; highly resistant to pentamidine or melaminophenyl arsenicals (−−−)
[16] = test system: LAPT1; experiment: [3H]pentamidine low-affinity transport, bloodstream forms; format: cell-based, T. b. brucei; settings: for Km: read-out: LAPT1 pentamidine Km
[17] = molecular target: T3, TbAQP3 (Trypanosoma brucei brucei, UniProt Q6ZXT2); format: cell-based, T. b. brucei; settings: 100 nM [3H]pentamidine over 5 min; TbAQP3-transfected promastigotes
T3 construct: expressed in transfected cells; host or cells: Leishmania mexicana promastigotes, pNUS vector
T3 sequence (Q6ZXT2 whole entry): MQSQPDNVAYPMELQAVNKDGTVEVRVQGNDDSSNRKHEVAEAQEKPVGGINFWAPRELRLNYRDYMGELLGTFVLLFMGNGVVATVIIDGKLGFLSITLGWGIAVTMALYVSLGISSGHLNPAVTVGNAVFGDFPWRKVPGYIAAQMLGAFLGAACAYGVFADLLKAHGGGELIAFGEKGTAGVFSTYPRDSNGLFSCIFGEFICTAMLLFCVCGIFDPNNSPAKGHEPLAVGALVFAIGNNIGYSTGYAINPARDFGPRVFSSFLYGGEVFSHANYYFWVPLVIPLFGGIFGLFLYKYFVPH

[18] = molecular target: T2, HAPT1; experiment: cell-based; format: cell-based, T. b. brucei
[19] = test system: T. b. gambiense; settings: cited from earlier work; further: key: highly sensitive (+++); ++: indicated on a relative scale; +: indicated on a relative scale; +/−: indicated on a relative scale; −: indicated on a relative scale; highly resistant to pentamidine or melaminophenyl arsenicals (−−−)
[20] = molecular target: T2, HAPT1; parameters: endogenous in cells; host or cells: bloodstream-form T. b. brucei Lister 427 derivatives (s427 WT, TbAT1-KO, 2T1: endogenous AQP2; B48/AQP2: wild-type TbAQP2 from vector pHDK21, derived from pHD1336); settings: cited from earlier work
[21] = test system: N=C(N)c1ccc(OCCCCCOc2ccc(C(=N)N)cc2)cc1; experiment: cells, lysate or membranes; settings: pH 7.3
[22] = B48 + TbAQP2 vs B48 empty vector (Figure 1)
[23] = P1000 + TbAQP2 vs P1000 empty vector (Figure 1)

C[C@H]1O[C@@H](n2cnc3c(N)ncnc32)[C@H](O)[C@@H]1O [5′-deoxyadenosine]
Increase in susceptibility on expression of TbAT1 ([1]; P < 0.001): > 20 fold

Cl.Cl.NCCS[As](SCCN)c1ccc(Nc2nc(N)nc(N)n2)cc1 [Cymelarsan]
Reversal of resistance on expression of TbAQP2 [1, 22]: 16.7 fold
Reversal of resistance on expression of TbAQP2 [1, 23]: 15.0 fold
Difference in susceptibility ([1]; aqp2 null vs aqp2 null expressing WT AQP2, P < 0.001): 4.1 fold
Difference in susceptibility ([1]; aqp2 null vs aqp2 null expressing chAQP2/3, P < 0.05): 1.4 fold
Resistance relative to parental line [2]: 755 fold
Resistance relative to parental line [3]: 83 fold

C[C@@H]1[C@H](O)[C@@H](C)/C=C/C=C/C=C/C=C/C=C/C=C/C=C/[C@H](O[C@@H]2O[C@H](C)[C@@H](O)[C@H](N)[C@@H]2O)C[C@@H]2O[C@](O)(C[C@@H](O)C[C@@H](O)[C@H](O)CC[C@@H](O)C[C@@H](O)CC(=O)O[C@H]1C)C[C@H](O)[C@H]2C(=O)O [amphotericin B]
Sensitization by expression of TbAQP2 [4]: no statistically significant effect

Nc1ncnc2c1ncn2[C@@H]1O[C@H](CO)C[C@H]1O [cordycepin, 3′-deoxyadenosine]
Increase in susceptibility on expression of TbAT1 ([1]; P < 0.001): > 20 fold

N=C(N)c1ccc(/N=N/Nc2ccc(C(=N)N)cc2)cc1 [diminazene]
Reversal of resistance on expression of TbAQP2 [1, 22]: not affected
Reversal of resistance on expression of TbAQP2 [1, 23]: not affected
Ki [5]: 100 ± 21 µM
Sensitization by expression of TbAQP2 [4]: no statistically significant effect

N=C(N)c1ccc(OCCCCCOc2ccc(C(=N)N)cc2)cc1 [pentamidine]
Reversal of resistance on expression of TbAQP2 [1, 22]: 50 fold
Reversal of resistance on expression of TbAQP2 [1, 23]: 240 fold
EC50 [1]: 0.158 ± 0.002 µM
EC50 ([1]; aqp2/aqp3 null expressing AQP3^sf2, P < 0.02): 0.131 ± 0.003 µM
Rate of [3H]pentamidine uptake ([6]; 50 nM [3H]pentamidine in the presence of 1 mM unlabelled pentamidine): 0.00026 ± 1.8 × 10^−6 pmol/10^7 cells/s
Rate of [3H]pentamidine uptake ([6]; 50 nM [3H]pentamidine, over 15 s): 0.032 ± 0.002 pmol/10^7 cells/s
Increase of [3H]pentamidine uptake ([6]; 100 nM [3H]pentamidine over 5 min, TbAQP2-expressing promastigotes vs control): ~15 fold
Pentamidine resistance in vivo relative to parental line [7]: > 50 fold
IC50 [8]: 0.06 ± 0.017 µM
Reduction of [3H]pentamidine uptake ([8]; 50 nM [3H]pentamidine, B48 compared with TbAT1-KO control): 15.5 fold
Increase of [3H]pentamidine uptake on expression of TbAQP2 ([8]; 50 nM pentamidine, B48 + TbAQP2 vs B48): 27.7 fold
Resistance relative to parental line [2]: 74 fold
LAPT1 Vmax ([9]; STIB 247MR procyclics): 0.41 ± 0.10 pmol/10^7 cells/s
LAPT1 Vmax ([9]; STIB 247WT procyclics): 0.65 ± 0.17 pmol/10^7 cells/s
Km ([9]; STIB 247MR procyclics): 56 ± 19 µM
Km ([9]; STIB 247WT procyclics): 49 ± 19 µM
Km ([10]; read-out: LAPT1 pentamidine Km, B48 bloodstream forms, ref Bridges et al. 16): 56 ± 7 µM
Km ([10]; read-out: LAPT1 pentamidine Km, TbAT1-KO bloodstream forms, ref Matovu et al. 14): 50 ± 17 µM
Km ([10]; read-out: LAPT1 pentamidine Km, WT s427 bloodstream forms, ref De Koning 17): 56 ± 8 µM
Km ([10]; read-out: published pentamidine Km for LAPT1): 56.2 ± 8.3 µM
LAPT1 Vmax ([11]; STIB 386MR procyclics): 1.2 ± 0.4 pmol/10^7 cells/s
LAPT1 Vmax ([11]; STIB 386WT procyclics): 0.70 ± 0.15 pmol/10^7 cells/s
Km ([11]; STIB 386MR procyclics): 51 ± 2 µM
Km ([11]; STIB 386WT procyclics): 46 ± 9 µM
Susceptibility [12]: +++ and −
Loss of sensitivity on homozygous deletion of TbAT1 [13]: 2.5–3 fold
Sensitization by expression of TbAQP2 [4]: 40 fold
Sensitization by expression of TbAQP3 ([4]; L. mexicana promastigotes expressing TbAQP3, two independent clones): 1.5–2.5 fold
HAPT1 Vmax ([14]; STIB 386WT procyclics, 25 nM [3H]pentamidine): 0.007 ± 0.002 pmol/10^7 cells/s
Susceptibility [15]: +++ and +/− and ++ and −
Increase of [3H]pentamidine uptake on expression of TbAQP2 ([16]; 1 μM pentamidine, B48 + TbAQP2 vs B48): 2.5 fold
Uptake of [3H]pentamidine compared with control ([16]; 1 μM pentamidine, B48 compared with TbAT1-KO): not significantly different
IC50 ([16]; read-out: IC50, inhibition of [3H]pentamidine uptake, low-affinity phase, 2T1 control cells, 30 nM [3H]pentamidine, 1 mM adenosine, n = 3): 29.9 ± 4.3 µM
IC50 ([16]; read-out: IC50, inhibition of [3H]pentamidine uptake, aqp2 null cells, 30 nM [3H]pentamidine, 1 mM adenosine): 33.4 ± 9.5 µM
Km ([16]; B48/AQP2 bloodstream forms): 66 ± 1 µM
Km ([16]; P1000 bloodstream forms): 99 ± 24 µM
Uptake of [3H]pentamidine compared with control [17]: not significantly different
HAPT1 Vmax ([18]; STIB 247WT procyclics, 25 nM [3H]pentamidine): 0.008 ± 0.002 pmol/10^7 cells/s
Resistance relative to parental line [3]: 90 fold
Susceptibility [19]: +++ and +/−

N=C(N)c1ccc(OCCCOc2ccc(C(=N)N)cc2)cc1 [propamidine]
Ki [8]: 15.2 ± 1.6 µM
Ki [5]: 8.1 ± 0.8 µM
Ki [14]: 22 ± 6 µM
Ki ([20]; TbAT1-KO bloodstream forms, ref Matovu et al. 14): 13 ± 3 µM
Ki ([20]; WT s427 bloodstream forms, ref De Koning 17): 4.6 ± 0.7 µM
IC50, inhibition of [3H]pentamidine uptake ([16]; aqp2 null cells, 30 nM [3H]pentamidine, 1 mM adenosine): insensitive
Ki [18]: 14 ± 2 µM

Nc1ncnc2c1ccn2[C@@H]1O[C@H](CO)[C@@H](O)[C@H]1O [tubercidin, 7-deazaadenosine]
Increase in susceptibility on expression of TbAT1 ([1]; P < 0.001): > 20 fold
EC50 ([1]; s427 WT, read-out: EC50): 0.23 ± 0.03 µM
EC50 ([1]; tbat1−/− strain, read-out: EC50): 2.65 ± 0.23 µM
Decrease in susceptibility ([1]; tbat1−/− strain relative to s427 WT): 10 fold

HAPT1 (Trypanosoma brucei brucei)
Km ([21]; other: B48/AQP2 bloodstream forms): 0.046 ± 0.014 µM

TbAQP2 (Trypanosoma brucei brucei)
Km ([21]; other: L. mexicana/TbAQP2 promastigotes): 0.055 ± 0.004 µM
